Results as given in patent US6949553B2, “Aliphatic compounds, their synthesis method, and utilization of the same” (Maruha Corporation, priority 2001, dated 2005).

Key:
[1] = tested on: platelets; test: Collagen-induced in vitro platelet aggregation (rabbit PRP, transmittance); type: cell-based; details: Oryctolagus cuniculus; collagen 0.2 μg/ml, rabbit platelet rich plasma; read-out: 50% Inhibition Point for Platelet Aggregation, IC50
Protocol: Collagen-induced in vitro Platelet Aggregation
It was studied whether the compounds of the present invention would inhibit platelet aggregation induced by collagen.
These compounds were each diluted with physiological saline to end concentrations of 1×10^−7M, 3×10^−7M, 1×10^−6M, 3×10^−6M, 1×10^−5M, 3×10^−5M and 1×10^−4M.
Indomethacin was used as a positive control. Indomethacin was dissolved in methanol, and then diluted with physiological saline to end concentrations of 1×10^−6M, 3×10^−6M and 1×10^−5M.
Physiological saline was used as a negative control.
The tube was centrifuged at 900 rpm for 10 minutes at room temperature to separate the supernatant (PRP, platelet rich plasma fraction). The residue was further centrifuged for 15 minutes at 2,500 rpm to obtain the supernatant (PPP, platelet poor plasma fraction).
PPP (platelet poor plasma fraction) was placed in a cuvette, and the cuvette was mounted in a 37° C. incubator for PPP of an aggregometer (Hematracer 240 12ch, manufactured by MCM). Then, 200 μl of PRP (platelet rich plasma fraction) was added into a cuvette, and the cuvette was mounted in a reactor for PRP. With stirring by a magnetic stirrer, the transmittance of PPP was corrected to T650 nm=100%, and the transmittance of PRP was corrected to T650 nm=0%, by automatic adjustment for 30 seconds.
The study substance (20 μl) at a predetermined concentration was added into the cuvette and, 30 seconds later, 20 μl (end concentration 0.2 μg/ml) of collagen (produced by MCM) was added. Subsequent changes in the transmittance were recorded for 5 minutes. When the platelets are aggregated, the transmittance increases. When aggregation peaked, the transmittance T at maximum aggregation was compared with the transmittance T0 of the negative control, and the aggregation inhibition rate was expressed as percentage using the following equation: Aggregation inhibition rate=(1−T/T0)×100
From an aggregation inhibition curve obtained, a regression equation was derived by approximation of the linear type.

[2] = tested on: neutrophils and vascular endothelial cells; test: Pseudo-blood vessel in vitro inflammation model (TNFα, neutrophil migration through endothelial cell layer); type: cell-based, bovine; details: 30, 3 or 0.3 μM, TNFα 50 ng/ml
Protocol: A layer of bovine endothelial cells was adhered to the bottom surface of the membrane, and cultured for 80 minutes at 37° C. in 5% CO2. Then, a suspension of fluorescence-labeled neutrophils was added to the upper chamber of the transwell. Simultaneously, TNFα was suspended in the cell suspension in the upper chamber to an end concentration of 50, 25 or 17 ng/ml.
That is, in the above model, the phenomena that neutrophils pass from the upper chamber through the vascular endothelial cell layer into the lower chamber, and neutrophils adhere to the endothelial cell layer mimic a state where in response to TNFα within the blood vessel, neutrophils migrate from within the blood vessel to the site of inflammation.
In the same manner as described above, the number of neutrophils passing from the upper chamber through the vascular endothelial cell layer into the lower chamber, and the number of neutrophils adhering to the endothelial cell layer were measured. Based on these numbers, the neutrophil migration rate (%) was calculated. The neutrophil migration rate was expressed as the relative value (%) of the number of the migrating neutrophils in the drug treatment group with respect to the number of the migrating neutrophils in the negative control group (physiological saline).

[3] = tested on: platelets; test: Ex vivo platelet aggregation after intravenous administration; type: in vivo, rat; details: 0.1 mg/kg intravenous, blood 1 hour after administration, collagen 1 to 6 μg/ml
Protocol: The blood was withdrawn at three points in time, 10 minutes, 30 minutes and 1 hour after administration. Platelets were prepared from the blood samples taken, and they were used to study the aggregation rates when platelet aggregation was induced by 0.3 to 6 μg/ml of collagen. In a control group, the aggregation rates after administration of a solvent (physiological saline) were measured.
It was studied whether the compound of the present invention would suppress ex vivo platelet aggregation dose-dependently.
The blood was withdrawn 60 minutes after administration, and platelets were prepared from the blood. Platelet aggregation was induced by 4 to 7 μg/ml of collagen using the platelets.
The blood was withdrawn 1 hour after intravenous administration, and platelets were prepared from the blood. Platelet aggregation was induced by 1 to 6 μg/ml of collagen using the platelets.

[4] = tested on: platelets; test: In vitro platelet aggregation by various inducers, rabbit platelets; type: cell-based; details: Oryctolagus cuniculus, Platelet; inducer collagen (0.1 to 1 μg/ml), rabbit platelets; read-out: 50% inhibition point, IC50, for in vitro platelet aggregation
Text: (§1) Next, the suppression of platelet aggregation by the compounds of the present invention was studied in the same manner as described above with the use of not only collagen, but also arachidonic acid, ADP, thrombin, serotonin, epinephrine and U46619 (pseudo-thromboxane A2 substance) as inducers.
(§2) As platelets, platelets prepared from rats and guinea pigs as well as rabbits were also used.
(§3) Collagen and ADP were purchased from MCM, and used in accordance with the method of preparation described in the manuals attached to the purchased products. Serotonin, epinephrine and thrombin were purchased from Sigma, and used as solutions in physiological saline for injection (Otsuka Pharmaceutical Factory). Arachidonic acid was purchased from Cayman, and dispersed in physiological saline for injection (Otsuka Pharmaceutical Factory) with the use of an immersion type ultrasonic oscillator (US150, NIPPON SEIKI, tip end diameter ca. 3.5 mm). U46619 (pseudo-thromboxane substance) was purchased from FUNAKOSHI, and dissolved in physiological saline for injection (Otsuka Pharmaceutical Factory) when used.
(§4) Collagen (0.1 to 1 μg/ml), arachidonic acid (1 mM), ADP (1 μM), thrombin (1 U/ml), serotonin (100 μM), epinephrine (100 to 200 μM), and U46619 (3 μM) were used.
(§5) Indomethacin was used as a positive control for measuring the suppression of platelet aggregation induced by collagen.

[5] = tested on: platelets; test: In vitro platelet aggregation by various inducers, guinea pig platelets; type: cell-based; details: Cavia porcellus, inducer collagen (0.1 to 1 μg/ml), guinea pig platelets, read-out: 50% inhibition point, IC50, for in vitro platelet aggregation
Text: as §1, §2, §3, §4, §5

[6] = tested on: platelets; test: In vitro platelet aggregation by various inducers, rat platelets; type: cell-based; details: inducer collagen (0.1 to 1 μg/ml), rat platelets, read-out: 50% inhibition point, IC50, for in vitro platelet aggregation
Text: as §1, §2, §3, §4, §5

Row | SMILES | IC50 [1] | other results
1 | CC/C=C\C/C=C\C/C=C\C/C=C\C/C=C\C/C=C\CCC(=O)NN1CCN(C)CC1 [Compound 1, (4Z,7Z,10Z,13Z,16Z,19Z)-N-(4-methylpiperazin-1-yl)docosahexaenoamide] | 7.9 µM | neutrophil passage through vascular endothelial cell layer (in words) [2]: suppressed neutrophil passage dose-dependently
2 | CCCCCCCC(=O)NCCC1CCCN1C (stereo not drawn) [Compound 3, N-[2-(1-methylpyrrolidin-2-yl)ethyl]caprylamide] | 8.1 µM | 
3 | CCCCCCCCCCCCCC(=O)NCCC1CCCN1C (stereo not drawn) [Compound 4, N-[2-(1-methylpyrrolidin-2-yl)ethyl]myristamide] | 42 µM | 
4 | CCCCCCCC/C=C\CCCCCCCC(=O)NCCC1CCCN1C (stereo not drawn) [Compound 5, 9Z-N-[2-(1-methylpyrrolidin-2-yl)ethyl]oleamide] | 5.6 µM | ex vivo platelet aggregation (in words) [3]: suppress platelet aggregation
5 | CCCCC/C=C\C/C=C\CCCCCCCC(=O)NCCC1CCCN1C (stereo not drawn) [Compound 6, (9Z,12Z)-N-[2-(1-methylpyrrolidin-2-yl)ethyl]linoleamide] | 2.1 µM | 
6 | CC/C=C\C/C=C\C/C=C\CCCCCCCC(=O)NCCC1CCCN1C (stereo not drawn) [Compound 7, (9Z,12Z,15Z)-N-[2-(1-methylpyrrolidin-2-yl)ethyl]linolenamide] | 3.7 µM | 
7 | CC/C=C\C/C=C\C/C=C\C/C=C\C/C=C\CCCC(=O)NCCC1CCCN1C (stereo not drawn) [Compound 8, (5Z,8Z,11Z,14Z,17Z)-N-[2-(1-methylpyrrolidin-2-yl)ethyl]eicosapentaenoamide] | 3.7 µM | 
8 | CC/C=C\C/C=C\C/C=C\C/C=C\C/C=C\C/C=C\CCC(=O)NCC1CCCN1C (stereo not drawn) [Compound 9, (4Z,7Z,10Z,13Z,16Z,19Z)-N-[(1-methylpyrrolidin-2-yl)methyl]docosahexaenoamide] | 1.5 µM | 
9 | CC/C=C\C/C=C\C/C=C\C/C=C\C/C=C\C/C=C\CCC(=O)NCCCC1CCCN1C (stereo not drawn) [Compound 11, (4Z,7Z,10Z,13Z,16Z,19Z)-N-[3-(1-methylpyrrolidin-2-yl)propyl]docosahexaenoamide] | 4.2 µM | 
10 | COc1ccc2c(c1)c(CC(=O)O)c(C)n2C(=O)c1ccc(Cl)cc1 [Indomethacin, reference compound] | 5 µM | IC50 [4]: 4 µM; IC50 [5]: 29 µM; IC50 [6]: 18 µM
